Source: the supplement of paper PMC10721915
± gives the standard deviation of the averaged measurements.

Tests used:
Experiment in all cases: relative cell growth vs untreated control (GI, NCI-DTP normalisation with time-zero) (fraction of control growth); higher = more growth / less inhibition
Details in all cases: concentration of partner 0 M, treatment time: 120 h
[1] = test system: NCIH460
Protocol: (§1)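 Cancer cell lines in 96-well plates were treated 48 h after seeding with M4076 (ATM inhibitor) and berzosertib (ATR inhibitor), alone or mixed, in 4-fold dilutions for 120 h. Protein was read by sulforhodamine B staining, background-subtracted and normalised NCI-DTP style to untreated control growth. Rows with one concentration equal to 0 are monotherapy.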

[2] = test system: HEPG2
Protocol: as §1

[3] = test system: ASPC1
Protocol: as §1

[4] = test system: IGROV1
Protocol: as §1

[5] = test system: U87MG
Protocol: as §1

[6] = test system: U2OS
Protocol: as §1

[7] = test system: RAMOS
Protocol: as §1

[8] = test system: MV411
Protocol: as §1

[9] = test system: MDAMB435
Protocol: as §1

[10] = test system: COLO205
Protocol: as §1

[11] = concentration of first compound 0.0195 µM
[12] = concentration of first compound 0.0781 µM
[13] = concentration of first compound 0.2 µM
[14] = concentration of first compound 0.313 µM
[15] = concentration of first compound 1.25 µM
[16] = concentration of first compound 5 µM

CNCc1ccc(-c2cc(-c3nc(-c4ccc(S(=O)(=O)C(C)C)cc4)cnc3N)on2)cc1 [berzosertib] + COc1cc2ncc3c(c2cc1-c1cn(C)nc1C)n(-c1c(F)cncc1OC)c(=O)n3C [M4076]
relative cell growth [1, 11]: 1.12 ± 0.2
relative cell growth [1, 12]: 1.09 ± 0.2
relative cell growth [1, 13]: 0.607
relative cell growth [1, 14]: 0.357 ± 0.065
relative cell growth [1, 15]: 0.0867 ± 0.016
relative cell growth [1, 16]: 0.0406 ± 0.0074
relative cell growth [2, 11]: 1.09 ± 0.22
relative cell growth [2, 12]: 0.33 ± 0.067
relative cell growth [2, 13]: 0.0562
relative cell growth [2, 14]: 0.0114 ± 0.0023
relative cell growth [2, 15]: -0.033 ± 0.0067
relative cell growth [2, 16]: -0.0501 ± 0.01
relative cell growth [3, 11]: 1.3 ± 0.23
relative cell growth [3, 12]: 1.07 ± 0.19
relative cell growth [3, 13]: 0.344
relative cell growth [3, 14]: 0.0569 ± 0.01
relative cell growth [3, 15]: -0.0955 ± 0.017
relative cell growth [3, 16]: -0.077 ± 0.013
relative cell growth [4, 11]: 1.15 ± 0.21
relative cell growth [4, 12]: 1.01 ± 0.18
relative cell growth [4, 13]: 0.468
relative cell growth [4, 14]: 0.129 ± 0.023
relative cell growth [4, 15]: -0.0355 ± 0.0062
relative cell growth [4, 16]: -0.0657 ± 0.012
relative cell growth [5, 11]: 1.09 ± 0.12
relative cell growth [5, 12]: 1.07 ± 0.12
relative cell growth [5, 13]: 0.8
relative cell growth [5, 14]: 0.677 ± 0.075
relative cell growth [5, 15]: 0.185 ± 0.021
relative cell growth [5, 16]: 0.195 ± 0.022
relative cell growth [6, 11]: 1.07 ± 0.072
relative cell growth [6, 12]: 0.977 ± 0.066
relative cell growth [6, 13]: 0.906
relative cell growth [6, 14]: 0.9 ± 0.061
relative cell growth [6, 15]: 0.0428 ± 0.0032
relative cell growth [6, 16]: -0.0411 ± 0.0025
relative cell growth [7, 11]: 1.1 ± 0.036
relative cell growth [7, 12]: 1.11 ± 0.036
relative cell growth [7, 13]: 1.16
relative cell growth [7, 14]: 1.05 ± 0.034
relative cell growth [7, 15]: 0.322 ± 0.011
relative cell growth [7, 16]: 0.103 ± 0.0034
relative cell growth [8, 11]: 1.25 ± 0.16
relative cell growth [8, 12]: 1.32 ± 0.17
relative cell growth [8, 13]: 0.778
relative cell growth [8, 14]: 0.429 ± 0.054
relative cell growth [8, 15]: -0.0241 ± 0.003
relative cell growth [8, 16]: -0.0294 ± 0.0037
relative cell growth [9, 11]: 1.07 ± 0.13
relative cell growth [9, 12]: 1.06 ± 0.13
relative cell growth [9, 13]: 0.893
relative cell growth [9, 14]: 0.656 ± 0.082
relative cell growth [9, 15]: -0.0138 ± 0.0017
relative cell growth [9, 16]: -0.0273 ± 0.0034
relative cell growth [10, 11]: 1.1 ± 0.16
relative cell growth [10, 12]: 0.981 ± 0.15
relative cell growth [10, 13]: 0.622
relative cell growth [10, 14]: 0.353 ± 0.053
relative cell growth [10, 15]: 0.114 ± 0.017
relative cell growth [10, 16]: 0.00456 ± 0.00065
